Data reported in patent US12084708B1, “Acoustic wave resonator with active shunt capacitance cancellation and systems thereof” (National Technology & Engineering Solutions of Sandia, LLC, priority 2019, dated 2024).

What was measured:
E. coli MG1655 = assay: Dose response growth curve analysis (OD600), MG1655; type: cell-based
Method: To perform an initial test of the sensors' ability to detect response of bacteria to antibiotics, common molecular cloning strains and one pseudo-wild-type strain of E. coli were selected. TOP10, DH5α, and MG1655 strains are sensitive to kanamycin, ampicillin, or chloramphenicol in the absence of a plasmid conferring resistance. Dose response growth curve analysis was performed to determine appropriate concentrations of antibiotic to use with each strain and plasmid combination.

E. coli = settings: final concentration 1M; positive control for cell death
Method: For experiments in which bacteria were applied to the resonator devices, cultures were harvested at late log to early stationary phase. Cells were centrifuged at 5000× g for 5 minutes then resuspended in either fresh LB medium or phosphate-buffered saline. For antibiotic treatment, 200 µg/ml kanamycin was added to cells in the sensor devices.

## CC1(C)S[C@@H]2[C@H](NC(=O)[C@H](N)c3ccccc3)C(=O)N2[C@H]1C(=O)O [ampicillin]
E. coli MG1655; E. coli MG1655 cultures, varying doses, OD600, FIG. 16B
  concentration at which growth inhibition was observed: more than 1.56 μg/mL

## NC[C@H]1O[C@H](O[C@H]2[C@H](O)[C@@H](O[C@H]3O[C@H](CO)[C@@H](O)[C@H](N)[C@H]3O)[C@H](N)C[C@@H]2N)[C@H](O)[C@@H](O)[C@@H]1O [kanamycin]
E. coli MG1655; E. coli MG1655 without plasmid, full 24 hr culture time, OD600, FIG. 17
  minimum concentration that completely blocked growth: 25 µg/mL

## [Na+].[OH-] [sodium hydroxide]
E. coli
  lysis of bacteria: Complete lysis
